From the supplement of paper PMC10307832

Key:
Experiment in all cases: relative viability (nuclei count vs DMSO), 5 days (fraction); higher = more cells survive
[1] = compound: CC1=CC(=CC=C1)NC2=NC(=CS2)C3=CC=NC=C3 + Cc1nc(NC(=O)N2CCC[C@H]2C(N)=O)sc1-c1ccnc(C(C)(C)C(F)(F)F)c1 [Alpelisib] (partner 2 µM)
Method in brief: (§1)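 Medians of duplicate plates are given as relative viability. That measure is the nuclei count in treated wells divided by the count in vehicle wells. Counts were taken on 4× images of lung cancer cell lines in 1536-well plates, 5 days after pin-tool dosing the day after seeding with one drug alone or a fixed anchor-drug dose plus five library-drug doses (not always all listed) in √10 steps.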

Masitinib + Pemetrexed = compound: Cc1ccc(NC(=O)c2ccc(CN3CCN(C)CC3)cc2)cc1Nc1nc(-c2cccnc2)cs1 [Masitinib] + Nc1nc2[nH]cc(CCc3ccc(C(=O)N[C@@H](CCC(=O)O)C(=O)O)cc3)c2c(=O)[nH]1 [Pemetrexed] (partner 0.2 µM)
Method in brief: as §1

[2] = compound: CC1=CC(=CC=C1)NC2=NC(=CS2)C3=CC=NC=C3
Method in brief: (§2)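 For viability, nuclei in each treated well were divided by nuclei in vehicle wells and the median across plates was taken. Lung cancer cell lines in 1536-well plates were pinned with five library-drug doses (not always all listed) spaced by √10, cultured 5 days without medium change, and imaged at 4× after Hoechst staining, with plates passing only at control CV below 25% and at least one doubling.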

Masitinib = compound: Cc1ccc(NC(=O)c2ccc(CN3CCN(C)CC3)cc2)cc1Nc1nc(-c2cccnc2)cs1 [Masitinib]
Method in brief: as §2

Cell Line | relative viability ([1]; first compound 0.08 µM) | relative viability ([1]; first compound 0.253 µM) | relative viability ([1]; first compound 0.8 µM) | relative viability ([1]; first compound 2.53 µM) | relative viability ([1]; first compound 8 µM) | relative viability (Masitinib + Pemetrexed; first compound 0.01 µM) | relative viability (Masitinib + Pemetrexed; first compound 0.03162 µM) | relative viability (Masitinib + Pemetrexed; first compound 0.1 µM) | relative viability (Masitinib + Pemetrexed; first compound 0.3162 µM) | relative viability (Masitinib + Pemetrexed; first compound 1 µM) | relative viability ([2]; 0.08 µM) | relative viability ([2]; 0.253 µM) | relative viability ([2]; 0.8 µM) | relative viability ([2]; 2.53 µM) | relative viability ([2]; 8 µM) | relative viability (Masitinib; 0.01 µM) | relative viability (Masitinib; 0.03162 µM) | relative viability (Masitinib; 0.1 µM) | relative viability (Masitinib; 0.3162 µM) | relative viability (Masitinib; 1 µM)
NCI-H1792 | 0.628 | 0.523 | 0.567 | 0.443 | 0.589 | 0.846 | 0.525 | 0.93 | 0.548 | 0.707 | 0.746 | 0.698 | 0.793 | 0.653 | 0.753 | 0.76 | 0.76 | 1.04 | 0.814 | 0.735
NCI-H1793 |  | 0.625 | 0.704 | 0.69 | 0.79 | 0.992 | 0.737 | 1 | 0.835 | 0.742 | 0.75 | 0.801 | 0.898 | 0.816 | 0.841 | 0.886 | 0.804 | 0.878 | 0.978 | 0.795
NCI-H1915 | 1.03 | 0.996 | 1.07 | 1.07 | 0.938 |  | 0.507 |  | 0.467 | 0.496 | 0.937 | 0.961 | 0.962 | 0.938 | 0.89 |  | 0.999 |  | 1 | 0.977
NCI-H1944 | 0.723 | 0.726 | 0.782 | 0.795 | 0.646 |  | 0.618 |  | 0.572 | 0.566 | 0.871 | 0.912 | 0.958 | 0.765 | 0.809 |  | 0.972 |  | 0.799 | 0.955
NCI-H1975 | 0.609 | 0.5 | 0.553 | 0.475 | 0.358 | 0.305 | 0.3 | 0.287 | 0.291 | 0.303 | 0.798 | 0.762 | 0.843 | 0.714 | 0.549 | 0.983 | 0.923 | 1.06 | 0.676 | 0.852
NCI-H1993 | 0.683 | 0.683 | 0.719 | 0.644 | 0.619 | 0.622 | 0.58 | 0.582 | 0.483 | 0.502 | 0.67 | 0.788 | 0.768 | 0.792 | 0.876 | 0.91 | 0.867 | 0.986 | 0.826 | 0.917
NCI-H2009 | 1.08 | 1.16 | 1.11 | 1.24 | 1.21 | 1 | 1.01 | 1.1 | 1.09 | 1.01 | 0.877 | 0.944 | 0.98 | 0.945 | 0.893 | 0.806 | 0.991 | 0.922 | 0.994 | 0.981
NCI-H2023 | 0.616 | 0.506 | 0.561 | 0.516 | 0.563 | 0.228 | 0.201 | 0.207 | 0.244 | 0.215 | 0.898 | 0.94 | 0.926 | 0.876 | 0.633 | 0.952 | 1.01 | 0.984 | 0.922 | 0.901
